Data on 70 compounds can be found in PubChem BioAssay AID179 (DTP/NCI, 2004).

Several values for one entry are separate records, joined by “and”; a condition that tells them apart may be missing. Identical values can stand only once. Activity calls are given as the source filed them.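 How the source made its calls: active means compounds giving half or more protection of infected cells from virus-caused growth loss, again on retest; inactive means the rest.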 Where a SMILES comes first, the peptide text is derived from it. [ ]: non-standard residue; d: D form. The star is where a group is joined. ξ: configuration not given here. ξW = NC(Cc1c[nH]c2ccccc12)C(=O)O; X18 = O=C(O)[C@H]1CCC[C@H]1N*; ξF = NC(Cc1ccccc1)C(=O)O; hSer = N[CH](CCO)C(=O)O; Boc = CC(C)(C)OC(=O)*; ξK = NCCCCC(N)C(=O)O; ξT = CC(O)C(N)C(=O)O; tBu = CC(C)(C)* Bounds are passed on as bounds.

This experiment relates to CEM cells HIV-1 protection, formazan growth assay. Nature of the experiment: NCI AIDS Antiviral Assay. To be noted: for IC50: measured here: growth of uninfected CEM cells. The procedure, abridged: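 Screen of anti-HIV-1 activity in human CEM cells using a formazan-based growth measurement at five drug concentrations. Hits with 50% or greater protection were repeated, and confirmation required reproducible complete protection.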

As a reminder, the EC50 is the midpoint of the concentration-response curve. For orientation: IC50 means the concentration at which inhibition is half-maximal. The low end stands for greater potency, the high end for weaker potency. Turning to `COc1ccc(-c2c(C#N)c(S)n(C3OC(CO)C(O)C(O)C3O)c(=O)c2C#N)cc1` (stereo unspecified), the EC50 is over 200 µM; the half-inhibitory concentration (IC50) is 195 µM and > 200 µM.
Take `CN1C(=O)C2C=CC1C1CCC2N(C)C1=O` (stereo unspecified): the outcome was inactive.
`COc1ccc(CC(=O)c2cc(OC)c(OC)cc2C)cc1OC`: the EC50 was over 398 µM and the IC50 stood at 30.9 µM.
For `Nc1nnc(N)n1NC(=O)C(=O)Nc1ccc([N+](=O)[O-])cc1` the same measures were over 151 µM and over 151 µM.
Regarding `CON(C)c1nc(Cl)nc(N(C)OC)n1`, the EC50 is over 200 µM and the IC50 was over 200 µM.
On to `COC(=O)c1cc(C)n(NC(=O)OC(C)(C)C)c1C`, for which the EC50 is over 251 µM and the half-maximal inhibitory concentration (IC50) was over 251 µM.
For `O=C(C=Nc1ccccc1S)c1ccco1`, the result was inactive.
For `CN(NC(=O)CCCl)C1=NCCN1`, the EC50 is over 200 µM and the IC50 is over 200 µM.
For `Nc1c2c([nH]c(=O)c1N=O)CCC2`, the EC50 is over 200 µM and the IC50 was over 200 µM.
In the case of `CC1(C)OP23(NC(=O)OC2(C(F)(F)F)c2ccccc2O3)OC1(C)C` (stereo unspecified), the EC50 was over 245 µM and the 50% inhibitory concentration (IC50) is over 245 µM.
As to `CN(C)CCCNC(=O)CCNC(=O)c1cc(NC(=O)c2cc(NC(=O)c3cc(NC(=O)CCCNC(=O)c4cc(NC(=O)c5cc(NC(=O)c6nccn6C)cn5C)cn4C)cn3C)cn2C)cn1C`, the result was inactive.
Consider `COCCC(NC(=O)C(CC(C)C)NC(=O)OC(C)(C)C)C(=O)OC` (stereo not drawn) (Boc-Leu-[hSer](Me)-OMe; configuration not given here), for which the EC50 was over 200 µM and the concentration for half-maximal inhibition (IC50) was found to be 26.9 µM.
For `FC(F)(F)C12C34C=CC5(CCC6(C=CC1(CC3)O6)C52C(F)(F)F)O4` (stereo unspecified), the result was inactive.
Turning to `N.N.N.N.N.[Cl-].[Co+3].c1ccc(-c2nn[n-]n2)cc1`, the EC50 was over 692 µM and the half-inhibitory concentration (IC50) was over 692 µM.
Regarding `Clc1cc2nncc(N3CC3)c2cc1Cl`, the result was inactive.
For the compound `CC(C)(C)OC(=O)N(CCCCNC(=O)c1ccccc1)CCCNC(=O)c1ccccc1`, the EC50 is over 200 µM and the half-maximal inhibitory concentration (IC50) came to 45.7 µM.
The corresponding values for `c1ccc([P+](c2ccccc2)(c2ccccc2)C2c3ccccc3-c3ccccc32)cc1` are over 200 µM and 10.7 µM.
The corresponding values for `C[N+](C)(C)CCCCCc1c2nc(c(CCCCC[N+](C)(C)C)c3ccc([nH]3)c(CCCCC[N+](C)(C)C)c3ccc([nH]3)c(CCCCC[N+](C)(C)C)c3nc1C=C3)C=C2` are over 100 µM and 57.5 µM.
With `CN1C(c2ccccc2)CS(=O)(=O)CS1(=O)=O` (stereo unspecified), the result was inactive.
In the case of `Cc1ccc(S[C@@](C=O)(NC(=O)OCc2ccccc2)C(F)(F)F)cc1`, the outcome was inactive.
As for `CC(=O)OC1C(COC(=O)c2ccccc2)OC(Nc2ncc(-c3ccc(Br)cc3)s2)C(OC(=O)c2ccccc2)C1OC(=O)c1ccccc1` (stereo unspecified), the EC50 was over 200 µM and the IC50 is 20.4 µM.
Regarding `COC(=O)c1ccc2n[se]nc2c1`, the result was inactive.
On to `C[N+](C)(C)CC(=O)N/N=C(/C(=O)Nc1ccc(Br)cc1)C1C(=O)NC(=O)NC1=O`, for which the EC50 was over 200 µM and the IC50 is over 200 µM.
Turning to `CCN=C(NC(=O)c1c(Cl)cccc1Cl)SCSC(=NCC)NC(=O)c1c(Cl)cccc1Cl`, the EC50 is over 200 µM and the IC50 is 170 µM.
With `CCN(CC)CCNc1c(OC)c(OC)cc2nccnc12`, the EC50 is over 200 µM and the IC50 is 64.6 µM.
The corresponding values for `Cc1cn([C@H]2CC3C(CON3C)O2)c(=O)[nH]c1=O` (stereo partly specified) are over 200 µM and over 200 µM.
For `COC(=O)c1cc(C(=CCC(=O)O)c2cc(Cl)c(OC)c(C(=O)OC)c2)cc(Cl)c1OC` the same measures were over 200 µM and 97.7 µM.
In the case of `COc1ccccc1NCc1cccc2c(=O)c3ccc(Cl)cc3oc12`, the EC50 was over 151 µM and the half-inhibitory concentration (IC50) was 46.8 µM.
With `CC(C)=CCC/C(C)=C/CC12OC(C)(C)C(Cl)CC1(Cl)C(=O)c1c(O)cc(O)cc1C2=O` (stereo unspecified), the EC50 is over 37.2 µM and the IC50 came out at 11 µM.
As to `CC(=O)OCC1OC(SC2OC(COC(C)=O)C(OC(C)=O)C(OC(C)=O)C2OC(C)=O)C(OC(C)=O)C(OC(C)=O)C1OC(C)=O` (stereo unspecified), the EC50 is 97.7 µM and the IC50 was over 200 µM.
For `O=C(CCc1ccccc1CO)NCCc1ccccc1` the same measures were over 200 µM and over 200 µM.
As for `O=Nc1c(O)c(S(=O)(=O)O)cc2cc(S(=O)(=O)O)ccc12`, the EC50 is over 200 µM and the 50% inhibitory concentration (IC50) came out at 33.1 µM.
On to `CNC(=O)N(C)C(=O)c1ccccc1C(=O)N(C)C(=O)NC`, for which the EC50 is over 200 µM and the half-inhibitory concentration (IC50) is over 200 µM.
Regarding `C=C1C(OC(C)=O)[C@@]23CC[C@@H]4C(C)(C(=O)OC)CCCC4(C)[C@@H]2CC[C@@H]1C3` (stereo partly specified), the EC50 is over 200 µM and the IC50 amounted to 51.3 µM.
For the compound `O=C1[C@@H]2C3c4ccccc4C([C@@H]2C(=O)N1c1ccccc1)S3(=O)=O`, the outcome was inactive.
Consider `COc1ccc(C2C=C(c3ccc(C)cc3)N(c3ccc(OC)cc3[N+](=O)[O-])C3C(=O)OC(=O)C23)c(OC)c1` (stereo unspecified), for which the EC50 is over 200 µM and the IC50 stood at 31.6 µM.
The corresponding values for `COc1ccc(C(=O)/C=C/c2ccc(OCC(=O)N3CCN(c4ccccc4)CC3)cc2)cc1` are over 29.5 µM and over 29.5 µM.
Consider `NCCCCCC(CCN)SCC1OC(n2cnc3c(N)ncnc32)C(O)C1O` (stereo unspecified), for which the EC50 is over 200 µM and the 50% inhibitory concentration (IC50) amounted to 107 µM.
The corresponding values for `C=C(Cn1cnc2c(N)ncnc21)C(=O)OC` are over 107 µM and 7.76 µM.
Take `CCOC(=O)c1c(-c2ccc(OC)c(O)c2)c(C#N)c(=S)n(C2OC(COC(C)=O)C(OC(C)=O)C(OC(C)=O)C2OC(C)=O)c1-c1ccccc1` (stereo unspecified): the EC50 was over 200 µM; the IC50 is 102 µM and 56.2 µM.
Regarding `O=c1[nH]nc(Cn2c3ccc(Br)cc3c3nc4ccccc4nc32)n1C1CCCCC1`, the EC50 is over 200 µM and the 50% inhibitory concentration (IC50) came out at 174 µM.
As to `CC(=O)NNC(=S)N/C=C(\C#N)S(=O)(=O)c1ccc(C)cc1`, the result was inactive.
On to `CC1C(O)=C(O)c2ccccc2N1O` (stereo unspecified), for which the EC50 was over 490 µM and the IC50 was found to be 87.1 µM.
For `O=C(O)CCCC(=O)Nn1c(Cc2ccc(Cl)cc2)n[nH]c1=O`, the EC50 was over 200 µM and the IC50 was over 200 µM.
For `Cc1nc2ccc(N=NN(C)C)cc2[nH]1`, the EC50 is over 200 µM and the IC50 is over 200 µM.
In the case of `O=C(NC(Nc1ccc(F)c(Cl)c1)(C(F)(F)F)C(F)(F)F)OCc1ccccc1`, the EC50 was over 200 µM and the half-inhibitory concentration (IC50) was 30.9 µM.
For `Cn1c(N)c(Br)c(=O)n(C)c1=O` the same measures were over 200 µM and over 200 µM.
On to `O=C1OC(CS(=O)(=O)c2ccccc2)CC1O` (stereo unspecified), for which the EC50 is over 200 µM and the half-inhibitory concentration (IC50) was over 200 µM.
For the compound `COc1cc2c(cc1OC)[C@H]1C(COC(=O)Nc3ccccc3)CN1CC2` (stereo partly specified), the EC50 is over 676 µM and the 50% inhibitory concentration (IC50) came out at 93.3 µM.
As for `CCN(CC)c1c(C)nnc2c(C)c(-c3ccccc3)nn12`, the EC50 is over 3.55 µM and the half-maximal inhibitory concentration (IC50) is over 3.55 µM.
Take `Cc1cc(Cl)ccc1NC(=O)CC1SC(=Nc2ccccc2Cl)NC1=O` (stereo unspecified): the EC50 was over 89.1 µM and the half-inhibitory concentration (IC50) worked out at 43.7 µM.
For the compound `CSc1nc2c(nc(N)n2C2OCC(O)C(O)C2O)c(=O)n1C` (stereo unspecified), the outcome was inactive.
Take `CCOC(=O)C1(C/C=C\CBr)CCCC1=O` (stereo unspecified): the EC50 was over 200 µM and the 50% inhibitory concentration (IC50) worked out at 33.9 µM.
For `COc1ccc(C2SC(N)=Nc3c2c(C)nn3C(=O)c2ccc(Cl)cc2)cc1OC` (stereo unspecified) the same measures were over 200 µM and over 200 µM.
As to `O=S(=O)(O)SCCCNCCCCCCNCCCSS(=O)(=O)O`, the EC50 was over 200 µM and the concentration for half-maximal inhibition (IC50) stood at 129 µM.
For `CCCN=C(NC(=O)c1ccc(Cl)cc1)SC` the same measures were over 200 µM and over 200 µM.
Take `O=C1c2cc([N+](=O)[O-])ccc2-c2ccc3c4ccc5c6c(ccc(c7ccc1c2c73)c64)C(=O)c1cc([N+](=O)[O-])ccc1-5`: the EC50 was over 100 µM and the concentration for half-maximal inhibition (IC50) was over 100 µM.
As for `O=C(CC(O)(C(F)(F)F)C(F)(F)F)c1ccc(-c2ccccc2)cc1`, the EC50 is over 200 µM and the half-inhibitory concentration (IC50) was 33.9 µM.
`COc1c2c(c(N)c3ccc(=O)oc13)CCO2`: the EC50 is over 126 µM and the IC50 was over 126 µM.
In the case of `CC(OC(C)(C)C)C(NC(=O)C(CCCCNC(=O)OC(C)(C)C)NC(=O)C(Cc1c[nH]c2ccccc12)NC(=O)C(N)Cc1ccccc1)C(=O)NC(Cc1ccccc1)C(=O)N[C@@H]1CCC[C@@H]1C(=O)O` (stereo partly specified) (H-[ξF][ξW][ξK](Boc)[ξT](tBu)[ξF]-X18), the result was inactive.
With `COc1ccc2cc3n(c2c1)CCc1cc(OC)c(OC)cc1-3`, the outcome was inactive.
Consider `O=C(NC1CCCCC1)/C(=C\c1ccc(/C=C(/NC(=O)c2ccccc2)C(=O)NC2CCCCC2)cc1)NC(=O)c1ccccc1`, for which the EC50 is over 200 µM and the half-maximal inhibitory concentration (IC50) was found to be 120 µM.
On to `O=C1/C(=C/c2ccc3c(c2)OCO3)Sc2scc(-c3ccc(O)c(O)c3)[n+]21`, for which the EC50 was over 200 µM and the 50% inhibitory concentration (IC50) is 1.1 µM.
For `CSc1ccc(NC(=O)Nc2cccc(C)n2)cc1` the same measures were over 200 µM and over 200 µM.
The corresponding values for `CSc1nnc(CCC(=O)Nc2c(C)cccc2C)o1` are over 309 µM and over 309 µM.
For `CCOP(=O)(OCC)/C(C#N)=C/c1coc2cc(C)cc(C)c2c1=O` the same measures were over 200 µM and over 200 µM.
With `Cc1ccc2nc(NS(=O)(=O)c3cc(C)c(Cl)cc3S)[nH]c2c1`, the EC50 was over 200 µM and the IC50 was over 200 µM.
In the case of `CC1CCCc2c(C#N)c(N)nc(-c3ccc(Cl)cc3)c21` (stereo unspecified), the EC50 is over 200 µM and the half-inhibitory concentration (IC50) stood at 26.9 µM.
Take `CCCOCN1COCN=C1NC#N`: the EC50 is over 447 µM and the 50% inhibitory concentration (IC50) came out at 417 µM.
With `Cc1ccc(N2C(=O)N(c3ccc(C)cc3)C3(SC=NN3C)C2=O)cc1` (stereo unspecified), the result was inactive.
